For one experiment, the target named is PPK (Escherichia coli, UniProt P0A7B1).
A further experiment has as its target T1, PPX (Escherichia coli, UniProt P0AFL6).
T1 sequence (P0AFL6 2-513): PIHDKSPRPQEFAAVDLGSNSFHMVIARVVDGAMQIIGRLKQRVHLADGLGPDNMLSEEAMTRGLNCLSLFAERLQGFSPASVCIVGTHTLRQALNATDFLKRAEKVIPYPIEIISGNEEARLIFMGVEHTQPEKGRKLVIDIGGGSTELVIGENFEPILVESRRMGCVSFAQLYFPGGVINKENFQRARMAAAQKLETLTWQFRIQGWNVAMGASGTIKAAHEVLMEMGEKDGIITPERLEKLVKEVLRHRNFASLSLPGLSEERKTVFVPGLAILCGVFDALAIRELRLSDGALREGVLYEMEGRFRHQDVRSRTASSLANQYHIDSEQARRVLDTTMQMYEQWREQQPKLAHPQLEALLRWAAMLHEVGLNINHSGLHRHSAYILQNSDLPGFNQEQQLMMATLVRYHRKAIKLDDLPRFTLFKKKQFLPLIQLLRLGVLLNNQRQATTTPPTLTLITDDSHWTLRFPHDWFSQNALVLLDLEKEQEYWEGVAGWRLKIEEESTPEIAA
Description: specific activity after incubation with N-chlorotaurine. Particulars: covalent (oxidation of Cys169 and, to a lesser extent, Cys85). Type of experiment: biochemical.

Sequence of PPK (P0A7B1 2-688): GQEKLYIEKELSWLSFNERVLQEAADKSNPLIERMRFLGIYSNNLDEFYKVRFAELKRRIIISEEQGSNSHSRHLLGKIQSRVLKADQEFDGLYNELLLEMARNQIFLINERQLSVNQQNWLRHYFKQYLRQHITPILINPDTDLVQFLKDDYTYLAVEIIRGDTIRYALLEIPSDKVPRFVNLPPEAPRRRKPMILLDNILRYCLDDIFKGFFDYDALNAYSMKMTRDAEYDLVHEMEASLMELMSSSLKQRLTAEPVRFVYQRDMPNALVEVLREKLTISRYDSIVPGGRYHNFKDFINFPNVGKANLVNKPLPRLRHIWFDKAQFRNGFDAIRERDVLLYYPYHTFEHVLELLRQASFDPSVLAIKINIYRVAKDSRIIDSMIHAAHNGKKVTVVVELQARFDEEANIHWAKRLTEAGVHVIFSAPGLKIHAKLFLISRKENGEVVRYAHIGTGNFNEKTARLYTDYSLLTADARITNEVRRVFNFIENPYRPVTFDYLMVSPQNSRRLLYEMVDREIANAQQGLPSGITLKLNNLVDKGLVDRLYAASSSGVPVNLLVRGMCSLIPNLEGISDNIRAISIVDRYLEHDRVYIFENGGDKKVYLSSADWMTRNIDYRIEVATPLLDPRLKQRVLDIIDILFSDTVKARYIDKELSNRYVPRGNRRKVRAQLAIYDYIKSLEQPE

Regarding `Nc1ncnc2c1ncn2[C@@H]1O[C@H](COP(=O)(O)OP(=O)(O)OP(=O)(O)O)[C@@H](O)[C@H]1O` [ATP], on PPK, the “specific activity, forward reaction (polyP synthesis)” value is “Specific activity of PPK’s forward and reverse reactions (see Figure 1C)”. In the case of `O=S(=O)(O)CCNCl` [N-chlorotaurine], at PPX, the “specific activity after incubation with N-chlorotaurine” value is listed as “Purified PPX proved to be highly sensitive to inactivation by N-chlorotaurine”.

These data come from paper PMC3996911 (Molecular cell, 2014).
